Source: patent publication US7550487B2, “Pyrrolidine-3,4-dicarboxamide derivatives” (Hoffmann-La Roche Inc., priority 2004, dated 2009)

Biological target: T1, human factor Xa (Homo sapiens, UniProt P00742)
T1 construct: purchased Enzyme Research Laboratories
Assay: Factor Xa chromogenic peptide substrate assay (S-2222)
Type: biochemical
Protocol: Factor Xa activity was measured spectrophotometrically in microtiter plates in a final volume of 150 μl using the following conditions: Inhibition of human factor Xa (Enzyme Research Laboratories) was tested at an enzyme concentration of 3 nM using the chromogenic substrate S-2222 (Chromogenix AB, Mölndal, Sweden) at 200 nM. The reaction kinetics of the enzyme and the substrate were linear with both time and the enzyme concentration. The inhibitors were dissolved in DMSO and tested at various concentrations up to 100 μM. The inhibitors were diluted using HNPT buffer consisting of HEPES 100 mM, NaCl 140 mM, PEG 6000 0.1% and Tween 80 0.02%, pH 7.8. […] The velocity of the reaction was determined by the autoreader from the slope of the linear regression fit to 7 time points (1 minute). The initial velocity for each inhibitor concentration was determined by the slope of at least 4 time points in the linear phase by a linear regression fit (mOD/min^2). Apparent dissociation constants Ki were calculated according to Cheng and Prusoff [Cheng, Y. C.; Prusoff, W. H. Relationship between the inhibition constant (Ki) and the concentration of the inhibitor that causes 50 percent inhibition (IC50) of an enzyme reaction. Biochem. Pharmacol. 1973, 22, 3099-3108.] based on the IC50 and the respective Km, determined previously (Ki=IC50/(1+S/Km)). […]

T1 sequence (P00742 235-488 limits assumed): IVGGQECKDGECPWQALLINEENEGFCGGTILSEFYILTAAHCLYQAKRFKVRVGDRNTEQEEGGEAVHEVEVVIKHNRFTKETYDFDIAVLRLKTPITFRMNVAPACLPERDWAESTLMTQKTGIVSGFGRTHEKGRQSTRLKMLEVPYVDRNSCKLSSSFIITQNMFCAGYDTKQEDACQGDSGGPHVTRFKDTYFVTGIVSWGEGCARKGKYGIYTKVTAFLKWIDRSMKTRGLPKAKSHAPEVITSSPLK
T1 sequence (P00742 41-179 partner limits assumed): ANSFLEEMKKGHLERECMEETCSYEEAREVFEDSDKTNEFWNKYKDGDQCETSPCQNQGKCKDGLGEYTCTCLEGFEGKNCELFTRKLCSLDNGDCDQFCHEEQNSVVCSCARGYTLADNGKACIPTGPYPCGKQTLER

CNC(=O)CN1C[C@H](C(=O)Nc2ccc(Cl)cc2)[C@@H](C(=O)Nc2ccc(-n3ccccc3=O)cc2F)C1 [Example 26, (3R,4R)-1-Methylcarbamoylmethyl-pyrrolidine-3,4-dicarboxylic acid 3-[(4-chloro-phenyl)-amide] 4-{[2-fluoro-4-(2-oxo-2H-pyridin-1-yl)-phenyl]-amide}]
Ki: 22 nM
